In test [1] the test system is 4th-instar household silkworm larvae. Nature of the test: Anti-JH Activity Test II: anti-JH activity value (ED50). The test is classed as in vivo, Bombyx mori. To be noted: 4th-instar larvae, dropwise application. Here is the method: (§1) The compound (test preparation) of the present invention diluted with acetone to the predetermined concentration was applied dropwise, in an amount of 1 to 4 μper larva, to the abdomen and the back of third- or fourth-instar larvae (those living for 0 to 8 hours after ecdysis) of household silkworms (Bombyx mori) raised in a room and fed on mulberry leaves. Immediately after treatment, the larvae were placed into a plastics case and reared by being fed on mulberry leaves until they started spinning cocoons. The anti-JH activity was evaluated in terms of the percentage (%) of presence of larvae (premature larvae) which began to spin cocoons at the 4th-instar stage without undergoing the 5th-instar moult. The test larvae treated with each test preparation in each group numbered 20. The test larvae in the control group treated with acetone in lieu of the test compound all commenced cocooning after the 5th-instar moult.
After the test compound diluted to the predetermined concentration was applied dropwise to 4th-instar household silkworm larvae in the same manner as in Anti-JH Activity Test I as described above, the larvae thus treated were reared until they started cocooning. The number of larvae which began to cocoon at the 4th-instar stage without undergoing the 5th-instar moult were counted to determine the percentage (%) of presence of larvae (premature larvae). Then the concentration of test preparation which induced 50% presence was determined and indicated as an anti-JH activity value (ED50).

For test [2], the system named is household silkworms (Bombyx mori) larvae. Nature of the test: Anti-JH Activity Test I: activity to induce premature metamorphosis. The test is classed as in vivo. As to the method:
as §1

For another test, the system named is anti-JH activity. Nature of the test: Inhibition of the anti-JH activity of the compound of Example 1 by methoprene, a JH-active substance. The following applies: in vivo. As to the method: Investigation was conducted to determine whether the activity of the foregoing compound of the invention can be inhibited by methoprene which is a JH-active substance. […] [Anti-JH Activity Test II]

With `CCCCCn1cncc1/C=C(\C)CCC=C(C)C` [Example 6, 1-amyl-5-[(E)-2,6-dimethyl-1,5-heptadienyl]imidazole], the “ED50 (anti-JH activity value, 50% presence of premature larvae)” value in test [1] is recorded as 2.4 μg/larva.

As to `CCC(C)n1cncc1/C=C(\C)CCC=C(C)C` (stereo not drawn) [Example 10, 1-sec-butyl-5-[(E)-2,6-dimethyl-1,5-heptadienyl]imidazole], the “ED50 (anti-JH activity value, 50% presence of premature larvae)” value in test [1] is given as 1.9 μg/larva.

`CC(C)=CCC/C(C)=C/c1cncn1C1CCCCC1` [Example 13, 1-cyclohexyl-5-[(E)-2,6-dimethyl-1,5-heptadienyl]imidazole]: in test [1], the “ED50 (anti-JH activity value, 50% presence of premature larvae)” value amounted to 6.6 μg/larva.

As to `CC(C)CCCC(C)Cc1cncn1Cc1ccccc1` (stereo not drawn) [Example 1, 1-benzyl-5-(2,6-dimethylheptyl)imidazole], the “Activity to induce premature metamorphosis” value in test [2] (3rd-instar larvae, dosage 0.5 μg/larva) was determined as 10%; in test [2] (3rd-instar larvae, dosage 1 μg/larva), 70%; in test [2] (3rd-instar larvae, dosage 2 μg/larva), 100%; in test [2] (4th-instar larvae, dosage 1 μg/larva), 20%; in test [2] (4th-instar larvae, dosage 2 μg/larva) it was 100%; in test [2] (4th-instar larvae, dosage 10 μg/larva) it was 100%. Besides, the “anti-JH activity (in words)” value in test [2] (conclusion from Table 1) is on record as “had an anti-JH activity”. Further, the “ED50 (anti-JH activity value, 50% presence of premature larvae)” value in test [1] worked out at 1.4 μg/larva.

As to `CCCCn1cncc1/C=C(\C)CCC=C(C)C` [Example 5, 1-butyl-5-[(E)-2,6-dimethyl-1,5-heptadienyl]imidazole], the “ED50 (anti-JH activity value, 50% presence of premature larvae)” value in test [1] was determined as 3.1 μg/larva.

Turning to `COC(C)(C)CCC[C@H](C)C/C=C/C(C)=C/C(=O)OC(C)C` (racemic) [methoprene], in the test on anti-JH activity, the “inhibition by methoprene of the activity of the compound of the invention (Example 1)” value is “completely inhibited”.

For `CC(C)=CCC/C(C)=C/c1cncn1C(C)C` [Example 8, 1-isopropyl-5-[(E)-2,6-dimethyl-1,5-heptadienyl]imidazole], in test [1], the “ED50 (anti-JH activity value, 50% presence of premature larvae)” value worked out at 6.4 μg/larva.

As to `CC(C)=CCC/C(C)=C/c1cncn1C1CCCC1` [Example 12, 1-cyclopentyl-5-[(E)-2,6-dimethyl-1,5-heptadienyl]imidazole], in test [1], the “ED50 (anti-JH activity value, 50% presence of premature larvae)” value is listed as 3.6 μg/larva.

Take `CCn1cncc1/C=C(\C)CCC=C(C)C` [Example 3, 1-ethyl-5-[(E)-2,6-dimethyl-1,5-heptadienyl]imidazole]: the “ED50 (anti-JH activity value, 50% presence of premature larvae)” value in test [1] was found to be 5.8 μg/larva.

For `CCCn1cncc1/C=C(\C)CCC=C(C)C` [Example 4, 1-propyl-5-[(E)-2,6-dimethyl-1,5-heptadienyl]imidazole], the “ED50 (anti-JH activity value, 50% presence of premature larvae)” value in test [1] amounted to 3.5 μg/larva.

`CCCCCCn1cncc1/C=C(\C)CCC=C(C)C` [Example 7, 1-hexyl-5-[(E)-2,6-dimethyl-1,5-heptadienyl]imidazole]: the “ED50 (anti-JH activity value, 50% presence of premature larvae)” value in test [1] is 4.2 μg/larva.

`CC(C)=CCC/C(C)=C/c1cncn1CC(C)C` [Example 9, 1-isobutyl-5-[(E)-2,6-dimethyl-1,5-heptadienyl]imidazole]: the “ED50 (anti-JH activity value, 50% presence of premature larvae)” value in test [1] is 1.8 μg/larva.

In the case of `CC(C)=CCC/C(C)=C/c1cncn1CCC(C)C` [Example 11, 1-isoamyl-5-[(E)-2,6-dimethyl-1,5-heptadienyl]imidazole], in test [1], the “ED50 (anti-JH activity value, 50% presence of premature larvae)” value is on record as 3.5 μg/larva.

As to `CC(C)=CCC/C(C)=C/c1cncn1C` [Example 2, 1-methyl-5-[(E)-2,6-dimethyl-1,5heptadienyl]-imidazole], the “ED50 (anti-JH activity value, 50% presence of premature larvae)” value in test [1] worked out at 17.5 μg/larva.
